In publication PMC5147891 (PLoS ONE, 2016):
Read-outs that look alike come from different tables or passages of the source. Marks after values point to notes of the source that are not given here.

Columns and labels:
hCB1 receptors [1] = molecular target: T1, hCB1 receptors (Homo sapiens, UniProt P21554); test: [35S]GTPγS binding (G-protein activity), CHO-hCB1 membranes; type: biochemical; details: 10 μM
Description: (§1) CHO-hCB1, CHO-hCB2 and CHO-hMOR cells were homogenized individually with 10 complete strokes utilizing a 7ml Dounce glass homogenizer in an ice-cold buffer containing 50 mM HEPES pH 7.4, 3 mM MgCl2, and 1 mM EDTA as described previously. The homogenized samples were then centrifuged at 40,000 × g for 10 min at 4°C. Supernatants were discarded; the pellets re-suspended in the buffer, homogenized again, and centrifuged similarly twice more. After the final centrifugation step, supernatants were discarded and pellets were re-suspended in ice-cold 50 mM HEPES, pH 7.4 to achieve an approximate protein concentration of 10 mg/ml. Membrane homogenates were divided into aliquots and stored at −80°C for future use. A small aliquot of each membrane preparation was removed prior to freezing and the protein concentration was determined using BCA Protein Assay (Thermo Fisher Scientific, Waltham, MA).
(§2) The GTPγS binding assay to measure G-protein activation was performed as previously described. Briefly, in a total volume of 1 ml, 25 μg of CHO-hCB2, 50 μg of CHO-hCB1-Rx or 50 μg of CHO-hMOR membranes homogenates were added to each reaction mixture containing 0.1 nM [^35S]GTPγS, 20 mM HEPES, 10 mM MgCl2, 100 mM NaCl, 10 μM GDP, 0.1% bovine serum albumin and the indicated concentrations of ligand to be examined. After mixing, reaction mixtures were incubated at 30°C for 30 min. […] Nonspecific binding was defined by the amount of radioactivity remaining in the presence of 10 μM non-radiolabeled GTPγS. Reactions were terminated by rapid vacuum filtration through glass fiber filters followed by four washes with ice cold 50 mM HEPES (pH 7.4) containing 0.1% bovine serum albumin. Four ml of scintiverse scintillation fluid (Fisher Scientific, Waltham, MA) was added to the filters and the amount of radioactivity was quantified 24 hr later utilizing liquid scintillation spectrophotometry.
Data presented are expressed as mean ± standard error of the mean (S.E.M.) for a minimum of three experiments, each performed in triplicate. GraphPad Prism version 6.0f (GraphPad Software Inc.) was used for all curve-fitting and statistical analyses. Non-linear regression for one-site competition was used to determine the IC50 for competition receptor binding. IC50 values were subsequently converted to Ki values (a measure of receptor affinity) by the Cheng-Prusoff equation [31]. Non-linear regression was also used to analyze concentration-effect curves to determine the EC50 or IC50 (measures of potency) and Emax or Imax (measures of efficacy) for GTPγS binding and adenylyl cyclase experiments, respectively. […] To compare three or more groups, statistical significance of the data was determined by a one-way ANOVA, followed by post hoc comparisons using a Tukey's or Dunnett's test. […]

hCB1 receptors [2] = molecular target: T1, hCB1 receptors; test: Forskolin-stimulated intracellular [3H]cAMP in intact CHO-hCB1 cells; type: cell-based; details: concentration-effect curves
Description: CHO-hCB1, CHO-hCB2, or CHO-hMOR cells were plated separately in normal culture media into 24-well plates at a density of 6 × 10^6 cells/plate and incubated overnight at 37°C in 5% CO2. As previously described, the following day culture media was removed from each well and replaced with 500 μl pre-incubation mixture containing either HAM’s F-12 K (CHO-hCB1) or DMEM (CHO-hCB2 and CHO-hMOR) with 0.9% NaCl, 500 μM 3-isobutyl-1-methylxathine (IBMX) and 2 μCi/well [^3H]adenine. Cells were incubated for 3–5 hr at 37°C. The pre-incubation mix was removed and indicated concentrations of drugs were added to the individual wells for 15 min at 37°C in a Krebs-Ringer-HEPES solution (10 mM HEPES, 110mM NaCl, 25mM Glucose, 55mM Sucrose, 5mM KCl, 1mM MgCl2, 1.8 mM CaCl2, pH 7.4) containing IBMX, and 10 μM forskolin. […] Radioactivity contained in 4 ml of the final column eluate was counted by a Packard-Tri-carb 2100/TR liquid scintillation counter after adding 10 ml of liquid scintillation cocktail.
(§3) Data presented are expressed as mean ± standard error of the mean (S.E.M.) for a minimum of three experiments, each performed in triplicate. […] To compare three or more groups, statistical significance of the data was determined by a one-way ANOVA, followed by post hoc comparisons using a Tukey's or Dunnett's test. […]

hCB1 receptors [3] = molecular target: T1, hCB1 receptors; test: Antagonism of CP-55,940 inhibition of AC activity in intact CHO-hCB1 cells; type: cell-based; details: CHO-hCB1 cells
Description: (§4) After overnight seeding into 24-well plates and pre-incubation of cells with [^3H]adenine for 3–5 hr at 37°C as described above, media was removed and the indicated concentration of the SERM to be tested was added to all wells of the 24-well plate. […] Reactions were terminated and [^3H]cAMP isolated as described above.
(§5) Data presented are expressed as mean ± standard error of the mean (S.E.M.) for a minimum of three experiments, each performed in triplicate. GraphPad Prism version 6.0f (GraphPad Software Inc.) was used for all curve-fitting and statistical analyses. Non-linear regression for one-site competition was used to determine the IC50 for competition receptor binding. IC50 values were subsequently converted to Ki values (a measure of receptor affinity) by the Cheng-Prusoff equation [31]. Non-linear regression was also used to analyze concentration-effect curves to determine the EC50 or IC50 (measures of potency) and Emax or Imax (measures of efficacy) for GTPγS binding and adenylyl cyclase experiments, respectively. All dissociation constants and measurements of potency were converted to pKi, pKB, pEC50, or pIC50 values by taking the negative log of each value so that parametric tests could be used for statistical comparisons. To compare three or more groups, statistical significance of the data was determined by a one-way ANOVA, followed by post hoc comparisons using a Tukey's or Dunnett's test. To compare two groups, the non-paired Student's t-test was used.

hCB2 receptors [4] = molecular target: T2, hCB2 receptors (Homo sapiens, UniProt P34972); test: Forskolin-stimulated intracellular [3H]cAMP in intact CHO-hCB2 cells; type: cell-based; details: for EMAX, intracellular [3H]cAMP: forskolin-stimulated cAMP; for EMAX, intracellular [3H]cAMP / EC50: values only approximate
T2 construct: expressed in transfected cells
T2 sequence (P34972 whole entry): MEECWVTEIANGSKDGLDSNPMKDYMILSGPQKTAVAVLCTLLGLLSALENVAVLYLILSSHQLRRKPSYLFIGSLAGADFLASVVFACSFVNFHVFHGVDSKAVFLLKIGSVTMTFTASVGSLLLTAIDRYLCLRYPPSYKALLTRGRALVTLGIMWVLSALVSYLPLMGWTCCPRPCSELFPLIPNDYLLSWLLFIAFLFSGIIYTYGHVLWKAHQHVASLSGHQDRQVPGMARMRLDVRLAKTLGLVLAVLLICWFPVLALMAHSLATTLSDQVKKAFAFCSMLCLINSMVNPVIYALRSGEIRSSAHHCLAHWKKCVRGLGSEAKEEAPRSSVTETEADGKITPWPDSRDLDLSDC
Description: CHO-hCB1, CHO-hCB2, or CHO-hMOR cells were plated separately in normal culture media into 24-well plates at a density of 6 × 10^6 cells/plate and incubated overnight at 37°C in 5% CO2. As previously described, the following day culture media was removed from each well and replaced with 500 μl pre-incubation mixture containing either HAM’s F-12 K (CHO-hCB1) or DMEM (CHO-hCB2 and CHO-hMOR) with 0.9% NaCl, 500 μM 3-isobutyl-1-methylxathine (IBMX) and 2 μCi/well [^3H]adenine. Cells were incubated for 3–5 hr at 37°C. The pre-incubation mix was removed and indicated concentrations of drugs were added to the individual wells for 15 min at 37°C in a Krebs-Ringer-HEPES solution (10 mM HEPES, 110mM NaCl, 25mM Glucose, 55mM Sucrose, 5mM KCl, 1mM MgCl2, 1.8 mM CaCl2, pH 7.4) containing IBMX, and 10 μM forskolin. Reactions were terminated by adding 50 μl 2.2N HCl and [^3H]cAMP was isolated by employing alumina column chromatography. Radioactivity contained in 4 ml of the final column eluate was counted by a Packard-Tri-carb 2100/TR liquid scintillation counter after adding 10 ml of liquid scintillation cocktail.
To determine if modulation of adenylyl cyclase activity by SERMs was mediated through CB2 receptors coupling to Gi/o proteins, additional cAMP assays were conducted following overnight treatment with pertussis toxin as described elsewhere. Briefly, CHO-hCB2 cells were seeded into 24-well plates as described above in normal culture media containing 100 ng/ml of pertussis toxin and incubated overnight at 37°C. Pertussis toxin-treated media was removed and measurement of intracellular [^3H]cAMP levels following indicated SERM treatments was conducted as described above.
as §5

hCB2 receptors [5] = molecular target: T2, hCB2 receptors; test: Competition receptor binding with [3H]CP-55,940, CHO-hCB2 membranes; details: [3H]CP-55,940 binding, CHO-hCB2, 0.2 nM [3H]CP-55,940, CHO-hCB2 membranes
Description: as §1
(§6) Competition receptor binding was performed as reported earlier. […] The total volume of the incubation mixture was 1 ml. All reactions were mixed and allowed to reach equilibrium binding by incubation at room temperature for 90 min. […] Binding was terminated by rapid vacuum filtration through glass fiber filters (Brandel, Gaithersburg, MD), followed by four 5 ml washes of ice-cold 50 mM Tris-HCl (pH 7.4) buffer containing 0.1% bovine serum albumin. Four ml of scintiverse scintillation fluid (Fisher Scientific, Waltham, MA) was added to the filters and the amount of radioactivity was quantified 24 hr later utilizing liquid scintillation spectrophotometry.
as §5

hCB1 receptors [6] = molecular target: T1, hCB1 receptors; test: Competition receptor binding with [3H]CP-55,940, CHO-hCB1 membranes
Description: as §1, §6, §5

hCB2 receptors [7] = molecular target: T2, hCB2 receptors; test: Antagonism of CP-55,940 inhibition of AC activity in intact CHO-hCB2 cells; type: cell-based
Description: as §4, §5

hCB2 receptors [8] = molecular target: T2, hCB2 receptors; test: [35S]GTPγS binding (G-protein activity), CHO-hCB2 membranes; type: biochemical; details: 10 μM
Description: as §1
as §2, with “Reactions were terminated by rapid vacuum filtration through glass fiber filters followed by four washes with ice cold 50 mM HEPES (pH 7.4) containing 0.1% bovine serum albumin.” left out
as §3

[9] = chronic administration, cited from earlier work
[10] = increase of forskolin-stimulated cAMP

T1 sequence (P21554 whole entry): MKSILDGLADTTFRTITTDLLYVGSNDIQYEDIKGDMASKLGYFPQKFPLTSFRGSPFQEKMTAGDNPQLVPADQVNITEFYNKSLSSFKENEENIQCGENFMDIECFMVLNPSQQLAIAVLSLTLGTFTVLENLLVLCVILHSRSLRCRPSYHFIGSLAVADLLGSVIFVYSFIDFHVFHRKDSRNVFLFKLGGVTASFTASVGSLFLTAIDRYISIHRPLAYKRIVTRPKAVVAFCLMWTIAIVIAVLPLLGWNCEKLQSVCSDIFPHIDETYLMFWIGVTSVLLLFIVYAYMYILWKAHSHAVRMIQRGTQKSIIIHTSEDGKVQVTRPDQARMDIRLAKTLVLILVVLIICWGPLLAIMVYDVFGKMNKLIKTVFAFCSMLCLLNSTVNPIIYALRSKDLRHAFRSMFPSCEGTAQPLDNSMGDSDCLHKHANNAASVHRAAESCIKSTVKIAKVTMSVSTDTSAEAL

Q: With `Cc1c(C(=O)NN2CCOCC2)nn(-c2ccc(Cl)cc2Cl)c1-c1ccc(I)cc1` [AM-281] as the compound, how does the “Effect on basal [35S]GTPγS binding” value (hCB1 receptors [1]) read?
A: The value was “decreased”.

Q: What about the “IMAX, inhibition of basal [35S]GTPγS binding” value (hCB1 receptors [1]) of the same compound?
A: Its value is 33. ± 3.2%.

Q: And the “Effect on basal cAMP levels” value (hCB1 receptors [2])?
A: Its value is “did not alter cAMP levels”.

Q: And the “Type of antagonism of CP-55,940” value (hCB1 receptors [3])?
A: The value was “surmountable antagonism”.

Q: What about the pKb (hCB1 receptors [3]; against CP-55,940, AM-281 1 μM, Z-4OHT 10 μM, Z-End 30 μM) of the same compound?
A: The pKb was 6.81 ± 0.061.

Q: And the Kb (hCB1 receptors [3]; against CP-55,940, AM-281 1 μM, Z-4OHT 10 μM, Z-End 30 μM, read-out: Kb (antagonist dissociation constant))?
A: Its Kb is 155 nM.

Q: What about the “Shift (decrease) in potency (IC50) of CP-55,940” value (hCB1 receptors [3]; AM-281 1 μM, Z-Tam 30 μM) of the same compound?
A: The value was “greater than 8 fold”.

Q: What about the “IMAX of CP-55,940, intracellular [3H]cAMP” value (hCB1 receptors [3]; CP-55,940 alone or after pre-incubation with AM-281 1 μM, Z-Tam 30 μM, Z-4OHT 10 μM, Z-End 30 μM) of the same compound?
A: Its value is 35.7 ± 0.9^a %.

Q: What does the source list for `CC/C(=C(\c1ccc(O)cc1)c1ccc(OCCN(C)C)cc1)c1ccccc1` [E-4OHT, 4-hydroxytamoxifen]?
A: EMAX, intracellular [3H]cAMP (hCB2 receptors [4]): 352 ± 52^a^,^b %; EC50 (hCB2 receptors [4]; [10]): 9.12 µM; Ki (hCB2 receptors [5]): 957 nM; Effect on basal [35S]GTPγS binding (hCB1 receptors [1]): did not significantly alter; Ki (hCB1 receptors [6]; Ki, [3H]CP-55,940 binding, CHO-hCB1, 0.2 nM [3H]CP-55,940, CHO-hCB1 membranes): 1240 nM; Selectivity (CB1/CB2) (hCB1 receptors [6]; ratio hCB1-Ki/hCB2-Ki): 1.30

Q: Which results are given for `COc1ccc(C(=O)c2c(C)n(CCN3CCOCC3)c3cc(I)ccc23)cc1` [AM-630]?
A: EMAX, intracellular [3H]cAMP (hCB2 receptors [4]): 214 ± 6.5%; pEC50, intracellular [3H]cAMP (hCB2 receptors [4]; increase of forskolin-stimulated cAMP, mean ± SEM): 6.40 ± 0.096; EC50 (hCB2 receptors [4]; [10]): 0.398 µM; Type of antagonism of CP-55,940 (hCB2 receptors [7]): parallel rightward-shift; IMAX of CP-55,940, intracellular [3H]cAMP (hCB2 receptors [7]; CP-55,940 alone or after pre-incubation with AM-630 1 μM, Z-Tam 10 μM, Z-4OHT 10 μM, Z-End 30 μM): 31.7 ± 0.3^a %; pKb (hCB2 receptors [7]; against CP-55,940, AM-630 1 μM, Z-Tam 10 μM, Z-4OHT 10 μM): 7.26 ± 0.064; Kb (hCB2 receptors [7]; against CP-55,940, AM-630 1 μM, Z-Tam 10 μM, Z-4OHT 10 μM, listed as +AM-630, read-out: Kb (antagonist dissociation constant)): 55 nM; Kb (hCB2 receptors [7]; against CP-55,940, AM-630 1 μM, Z-Tam 10 μM, Z-4OHT 10 μM, read-out: Kb (antagonist dissociation constant)): 55.4 nM; IMAX, decrease in basal G-protein activity ([35S]GTPγS binding) (hCB2 receptors [8]): 28.7%

Q: What does the source list for `CC/C(=C(\c1ccc(O)cc1)c1ccc(OCCN(C)C)cc1)c1ccccc1` [4OHT, 4-hydroxytamoxifen]?
A: Concentration reached in serum ([9]; ref [40]): high nanomolar concentrations; Levels accumulated in brain and breast tissue ([9]; ref [65], [66]): micromolar range
